The results in this text go back to ChEMBL document CHEMBL3244413, “A phenazine analogue of actinomycin D” (1979).

What is called ΔTm is the shift of the melting midpoint relative to a reference.

*1 amine or outer side, *2 acyl side, *3 side chain or, on linkers, in order; H or OH if unused. Where a SMILES comes first, the peptide text is derived from it. Bridges are numbered along the chain shown (N, C = ends). Roman numbers before positions name the chains, in order. [ ]: non-standard residue; d: D form. Actinocin(1to9) = Cc1c2oc3c(C)ccc(C(=O)[*:2])c3nc-2c(C(=O)[*:1])c(N)c1=O; NMeV = CN[C@H](C(=O)O)C(C)C; Sar = CNCC(=O)O

The test system of one assay is Calf thymus DNA. The assay is described as follows: Binding affinity to calf thymus DNA at 5.2 x 10^-6 M by CD spectra analysis. The format is nucleic-acid assay. The settings on record: Bos taurus.
The subject of assay [1] is L1210. The assay can be described thus: Inhibition of DNA synthesis in mouse L1210 cells by [3H]-thymidine incorporation assay. In kind it is functional. The settings on record: read-out: ED50 (the source's name). (In general: Uptake of a labelled nucleoside into DNA is a usual measure of proliferation.)
Assay [2] has as its system L1210. The assay can be described thus: Inhibition of RNA synthesis in mouse L1210 cells by [3H]-uridine incorporation assay. The settings on record: read-out: ED50 (the source's name). In kind it is functional.

In the case of `Cc1c2oc3c(C)ccc(C(=O)N[C@@H]4C(=O)N[C@H](C(C)C)C(=O)N5CCC[C@H]5C(=O)N(C)CC(=O)N(C)[C@@H](C(C)C)C(=O)O[C@@H]4C)c3nc-2c(C(=O)N[C@@H]2C(=O)N[C@H](C(C)C)C(=O)N3CCC[C@H]3C(=O)N(C)CC(=O)N(C)[C@@H](C(C)C)C(=O)O[C@@H]2C)cc1=O`, the ΔTm in the assay on Calf thymus DNA was 9.9 °C. Also, the EC50 in the assay on L1210 [1] was found to be 63000 nM; in the assay with L1210 [2], 700 nM.
Consider `Cc1ccc(C(=O)N[C@@H]2C(=O)N[C@H](C(C)C)C(=O)N3CCC[C@H]3C(=O)N(C)CC(=O)N(C)[C@@H](C(C)C)C(=O)O[C@@H]2C)c2nc3c(C(=O)N[C@@H]4C(=O)N[C@H](C(C)C)C(=O)N5CCC[C@H]5C(=O)N(C)CC(=O)N(C)[C@@H](C(C)C)C(=O)O[C@@H]4C)cccc3nc12`, for which the ΔTm with Calf thymus DNA stood at 3.4 °C. Also, the EC50 in the assay on L1210 [1] turned out to be 9200 nM; in the assay on L1210 [2] it was 230 nM.
Taken in the same sequence, the figures for `Cc1c2oc3c(C)ccc(C(=O)N[C@@H]4C(=O)N[C@H](C(C)C)C(=O)N5CCC[C@H]5C(=O)N(C)CC(=O)N(C)[C@@H](C(C)C)C(=O)O[C@@H]4C)c3nc-2c(C(=O)N[C@@H]2C(=O)N[C@H](C(C)C)C(=O)N3CCC[C@H]3C(=O)N(C)CC(=O)N(C)[C@@H](C(C)C)C(=O)O[C@@H]2C)c(N)c1=O` [DACTINOMYCIN] (I: T[dV]P[Sar][NMeV] / II: T[dV]P[Sar][NMeV]; ester I:1-I:C, II:1-II:C; linker I:N-II:N via Actinocin(1to9)) were 7.1 °C, 600 nM and 15 nM.
